Here are results for 8 molecules from PubChem BioAssay (NCI).

Test systems include IGROV1 ovarian; MOLT-4 leukemia; RPMI-8226 leukemia; M14 melanoma; A498 renal; UACC-62 melanoma; SK-OV-3 ovarian; MCF7 breast; TK-10 renal; SNB-19 CNS.
Experiment in all cases: NCI anticancer screen, dose series, 48 h

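48-hour exposure; five concentrations; linearly interpolated endpoints. GI50 is the concentration that inhibits growth by half. TGI: concentration producing complete growth inhibition.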 Bounds are passed on as bounds.

Regarding `CC[C@@]1(O)C(=O)NCc2c1cc1n(c2=O)Cc2cc3c(N)cccc3nc2-1`, the GI50 in the assay with IGROV1 ovarian is 10.1 µM; in the assay with MOLT-4 leukemia, 0.301 µM; in the assay with RPMI-8226 leukemia, 4.23 µM; in the assay with M14 melanoma, 0.685 µM; in the assay on A498 renal, 5.09 µM; in the assay on UACC-62 melanoma it was 1.15 µM. In addition, the GI50 is 4.54 µM with SK-OV-3 ovarian, 0.787 µM in the assay on MCF7 breast, 20.1 µM in the assay with TK-10 renal and 2.93 µM with SNB-19 CNS. For the same molecule, the TGI is over 100 µM with IGROV1 ovarian; 16.6 µM with MOLT-4 leukemia; over 32.1 µM in the assay with RPMI-8226 leukemia; over 65.8 µM with M14 melanoma; 38.6 µM in the assay with A498 renal; 20.2 µM in the assay with UACC-62 melanoma. Also, the TGI was over 86.1 µM in the assay with SK-OV-3 ovarian, over 100 µM with MCF7 breast, over 52.8 µM with TK-10 renal and over 50.7 µM with SNB-19 CNS.

As to `O=c1nc(Nc2cccc(Cl)c2)oc2cc(Cl)oc(=O)c12`, the GI50 with IGROV1 ovarian was 5.13 µM; in the assay on MOLT-4 leukemia it was 3.24 µM; in the assay on RPMI-8226 leukemia, 4.02 µM; with M14 melanoma it was 8.37 µM; with A498 renal, 10.9 µM; with UACC-62 melanoma, 5.79 µM. In addition, the GI50 is 17.2 µM with SK-OV-3 ovarian, 4.33 µM in the assay on MCF7 breast, 5.11 µM in the assay with TK-10 renal and 20 µM in the assay on SNB-19 CNS. Besides, the TGI with IGROV1 ovarian came to 21.1 µM; with MOLT-4 leukemia, 16.3 µM; in the assay with RPMI-8226 leukemia, 43.1 µM; in the assay on M14 melanoma, 26.9 µM; in the assay on A498 renal it was 27.3 µM; in the assay on UACC-62 melanoma, 21.3 µM. For the same molecule, the TGI in the assay on SK-OV-3 ovarian was 66.1 µM; in the assay on MCF7 breast, 20.9 µM; with TK-10 renal it was 24 µM; in the assay with SNB-19 CNS, over 100 µM.

`O=C(Nc1ccc(F)cc1)c1c(NC(=O)C(F)(F)F)sc2c1CCCCC2`: the GI50 in the assay with IGROV1 ovarian is 2.99 µM; with MOLT-4 leukemia it was 2.65 µM; in the assay on RPMI-8226 leukemia, 0.917 µM; with M14 melanoma, 2.91 µM; with A498 renal, 0.0527 µM; with UACC-62 melanoma, 0.585 µM. Besides, the GI50 in the assay on SK-OV-3 ovarian is 2.05 µM; in the assay on MCF7 breast it was 1.97 µM; in the assay with TK-10 renal, 3.96 µM; with SNB-19 CNS, 1.56 µM. Further, the TGI stood at 15.5 µM in the assay on IGROV1 ovarian; 15.2 µM with MOLT-4 leukemia; 4.14 µM in the assay on RPMI-8226 leukemia; 13.4 µM in the assay on M14 melanoma; 0.752 µM in the assay on A498 renal; 5.19 µM with UACC-62 melanoma. Moreover, the TGI in the assay with SK-OV-3 ovarian came out at 6.37 µM; in the assay on MCF7 breast, 9.84 µM; in the assay with TK-10 renal it was 12.5 µM; in the assay with SNB-19 CNS it was 21.4 µM.

Regarding `COC(=O)c1c2c(c(C)[n+]([O-])c1C)C(=O)C=C(NCc1ccc(F)c(F)c1)C2=O`, the GI50 in the assay with IGROV1 ovarian was 0.36 µM; with MOLT-4 leukemia it was 0.588 µM; in the assay on RPMI-8226 leukemia it was 0.783 µM; in the assay with M14 melanoma it was 0.274 µM; with A498 renal, 0.931 µM; in the assay on UACC-62 melanoma, 0.0618 µM. Also, the GI50 with SK-OV-3 ovarian is 1.86 µM; in the assay with MCF7 breast, 0.255 µM; in the assay on TK-10 renal, 2.06 µM; in the assay on SNB-19 CNS, 1.08 µM. Besides, the TGI in the assay on IGROV1 ovarian is 1.68 µM; in the assay on MOLT-4 leukemia it was 2.12 µM; in the assay with RPMI-8226 leukemia it was 3.23 µM; in the assay with M14 melanoma, 1.38 µM; in the assay on A498 renal it was 2.43 µM; with UACC-62 melanoma, 0.612 µM. The TGI in the assay on SK-OV-3 ovarian stood at 4.06 µM; with MCF7 breast, 0.891 µM; in the assay on TK-10 renal it was 4.82 µM; in the assay with SNB-19 CNS it was 2.29 µM.

With `O=C(NCCCNc1cc(-c2cn(-c3ccccc3)nc2-c2cccc(O)c2)ccn1)c1ccccc1`, the GI50 in the assay with IGROV1 ovarian was 4.2 µM; in the assay with MOLT-4 leukemia, 1.41 µM; with RPMI-8226 leukemia, 1.06 µM; with M14 melanoma, 2.56 µM; in the assay with A498 renal, 2.32 µM; in the assay with UACC-62 melanoma, 3.15 µM. In addition, the GI50 was 6.63 µM with SK-OV-3 ovarian, 1.74 µM with MCF7 breast, 8.39 µM in the assay with TK-10 renal and 7.75 µM in the assay on SNB-19 CNS. The TGI in the assay on IGROV1 ovarian came out at 59.6 µM; in the assay on MOLT-4 leukemia it was 3.78 µM; in the assay with RPMI-8226 leukemia, 3.3 µM; in the assay with M14 melanoma, 6.72 µM; with A498 renal, 66.4 µM; in the assay with UACC-62 melanoma, 12.2 µM. In addition, the TGI in the assay on SK-OV-3 ovarian is 92.8 µM; in the assay on MCF7 breast, 5.29 µM; in the assay with TK-10 renal, 52.6 µM; with SNB-19 CNS, over 100 µM.

For `COC(=O)c1sc(C(=O)OC)c2c1CSC2`, the TGI with IGROV1 ovarian, in the assay with MOLT-4 leukemia, in the assay on RPMI-8226 leukemia, in the assay on M14 melanoma, in the assay with A498 renal and in the assay on UACC-62 melanoma was over 100 µM each time. Besides, the TGI with SK-OV-3 ovarian is over 100 µM; in the assay with MCF7 breast, over 100 µM; with TK-10 renal, over 100 µM; with SNB-19 CNS it was over 85.8 µM.

Turning to `COc1ccc(/C=C/c2nc(NCCCN(C)C)c3ccccc3n2)cc1`, the GI50 with IGROV1 ovarian was 3.39 µM; in the assay on MOLT-4 leukemia, 1.61 µM; with RPMI-8226 leukemia, 1.78 µM; with M14 melanoma, 2.16 µM; in the assay with A498 renal it was 14 µM; with UACC-62 melanoma, 11.1 µM. Besides, the GI50 was 2.51 µM in the assay on SK-OV-3 ovarian, 1.72 µM in the assay on MCF7 breast, 6.59 µM in the assay with TK-10 renal and 4.31 µM in the assay on SNB-19 CNS. Further, the TGI amounted to 10.6 µM in the assay with IGROV1 ovarian; 3.55 µM with MOLT-4 leukemia; 4.64 µM with RPMI-8226 leukemia; 4.81 µM with M14 melanoma; 27.7 µM in the assay on A498 renal; 25.4 µM in the assay with UACC-62 melanoma. Further, the TGI in the assay on SK-OV-3 ovarian is 6.3 µM; in the assay on MCF7 breast it was 3.23 µM; in the assay on TK-10 renal, 22 µM; in the assay on SNB-19 CNS, 9.67 µM.

On to `N=C(N=C(N)N)N1CCN(c2ccncc2)CC1`, for which the GI50 in the assay with IGROV1 ovarian is over 1000 µM; with MOLT-4 leukemia it was over 1000 µM; in the assay with RPMI-8226 leukemia, over 1000 µM; with M14 melanoma it was over 1000 µM; in the assay on A498 renal, 155 µM; with UACC-62 melanoma, over 1000 µM. For the same molecule, the GI50 in the assay with SK-OV-3 ovarian, with MCF7 breast, in the assay with TK-10 renal and with SNB-19 CNS was over 1000 µM throughout. For the same molecule, the TGI in the assay with IGROV1 ovarian, with MOLT-4 leukemia, in the assay with RPMI-8226 leukemia, with M14 melanoma, in the assay on A498 renal and in the assay with UACC-62 melanoma was over 1000 µM throughout. Further, the TGI with SK-OV-3 ovarian, in the assay with MCF7 breast, in the assay on TK-10 renal and with SNB-19 CNS was over 1000 µM throughout.
